Values joined by “and” are separate entries in the source; they are usually repeats but may differ in a detail not shown here. Identical values can stand only once. Toxic doses and inconclusive results are not listed. Rule for the calls: active = survival T/C of 150% or more; inactive = T/C below 125% in these data.
System: C57BL/6 mice, intracerebral ependymoblastoma, median survival T/C
Test: NCI In Vivo Anticancer Drug Screen. Data for tumor model Ependymoblastoma (intracerebral) in C57BL/6 mice
Conditions: endpoint: median survival time, higher = longer survival
Experimental: The antitumor activity of compounds was measured in mice bearing transplantable tumors. Survival or tumor size were measured and the results are expressed as the measurement made in the treated group (T) divided by the measurement made in the vehicle treated control group (C). The tumor model used in this assay is Ependymoblastoma (intracerebral) in C57BL/6 mice

[1] = dose: 8.0 mg/kg/injection, schedule: Q01DX005 (ip), vehicle: saline with Tween-80
[2] = dose: 16.0 mg/kg/injection, schedule: Q01DX005 (ip), vehicle: saline with Tween-80
[3] = dose: 32.0 mg/kg/injection, schedule: Q01DX005 (ip), vehicle: saline with Tween-80

Measured: T/C

CCCCCCCCCCCCCC(=O)OC12CC(C)C3(O)C(C=C(CO)C(O)C4(O)C(=O)C(C)=CC43)C1C2(C)C (stereo not given)
inactive: dose: 0.13 mg/kg/injection, schedule: Q01DX005 (ip), vehicle: acetone 100 % of control | dose: 0.25 mg/kg/injection, schedule: Q01DX005 (ip), vehicle: acetone 97 % of control | dose: 0.5 mg/kg/injection, schedule: Q01DX005 (ip), vehicle: acetone 86 % of control

COc1cc(NS(C)(=O)=O)ccc1Nc1c2ccccc2nc2ccccc12
inactive: dose: 1.0 mg/kg/injection, schedule: Q01DX005 (ip), vehicle: Klucel (hydroxypropylcellulose) (HPC) 93 % of control and 108 % of control | dose: 1.0 mg/kg/injection, schedule: Q01DX005 (ip), vehicle: saline + alcohol 93 % of control and 108 % of control and 116 % of control | dose: 1.0 mg/kg/injection, schedule: Q01DX005 (ip), vehicle: water 89 % of control and 110 % of control | dose: 2.0 mg/kg/injection, schedule: Q01DX005 (ip), vehicle: Klucel (hydroxypropylcellulose) (HPC) 98 % of control and 104 % of control | dose: 2.0 mg/kg/injection, schedule: Q01DX005 (ip), vehicle: saline + alcohol 94 % of control and 109 % of control and 112 % of control | dose: 2.0 mg/kg/injection, schedule: Q01DX005 (ip), vehicle: water 105 % of control and 108 % of control | dose: 4.0 mg/kg/injection, schedule: Q01DX005 (ip), vehicle: Klucel (hydroxypropylcellulose) (HPC) 112 % of control | dose: 4.0 mg/kg/injection, schedule: Q01DX005 (ip), vehicle: saline + alcohol 90 % of control and 98 % of control | dose: 4.0 mg/kg/injection, schedule: Q01DX005 (ip), vehicle: water 103 % of control and 107 % of control | dose: 4.0 mg/kg/injection, schedule: Q#A X002 (ip), vehicle: Klucel (hydroxypropylcellulose) (HPC) 89 % of control and 105 % of control | dose: 8.0 mg/kg/injection, schedule: Q01DX001 (ip), vehicle: Klucel (hydroxypropylcellulose) (HPC) 90 % of control and 96 % of control and 106 % of control | dose: 8.0 mg/kg/injection, schedule: Q01DX005 (ip), vehicle: Klucel (hydroxypropylcellulose) (HPC) 116 % of control | dose: 8.0 mg/kg/injection, schedule: Q#A X002 (ip), vehicle: Klucel (hydroxypropylcellulose) (HPC) 91 % of control and 92 % of control | dose: 16.0 mg/kg/injection, schedule: Q01DX001 (ip), vehicle: Klucel (hydroxypropylcellulose) (HPC) 104 % of control (2×) and 107 % of control | dose: 16.0 mg/kg/injection, schedule: Q01DX001 (oral), vehicle: Klucel (hydroxypropylcellulose) (HPC) 99 % of control and 113 % of control | dose: 16.0 mg/kg/injection, schedule: Q#A X002 (ip), vehicle: Klucel (hydroxypropylcellulose) (HPC) 90 % of control | dose: 32.0 mg/kg/injection, schedule: Q01DX001 (ip), vehicle: Klucel (hydroxypropylcellulose) (HPC) 89 % of control and 101 % of control and 107 % of control | dose: 32.0 mg/kg/injection, schedule: Q01DX001 (oral), vehicle: Klucel (hydroxypropylcellulose) (HPC) 108 % of control | dose: 32.0 mg/kg/injection, schedule: Q#A X002 (ip), vehicle: Klucel (hydroxypropylcellulose) (HPC) 89 % of control and 93 % of control | dose: 64.0 mg/kg/injection, schedule: Q01DX001 (ip), vehicle: Klucel (hydroxypropylcellulose) (HPC) 91 % of control | dose: 64.0 mg/kg/injection, schedule: Q01DX001 (oral), vehicle: Klucel (hydroxypropylcellulose) (HPC) 94 % of control and 97 % of control | dose: 64.0 mg/kg/injection, schedule: Q#A X002 (ip), vehicle: Klucel (hydroxypropylcellulose) (HPC) 89 % of control and 91 % of control | dose: 128.0 mg/kg/injection, schedule: Q01DX001 (oral), vehicle: Klucel (hydroxypropylcellulose) (HPC) 90 % of control and 102 % of control | dose: 256.0 mg/kg/injection, schedule: Q01DX001 (oral), vehicle: Klucel (hydroxypropylcellulose) (HPC) 91 % of control

O=c1ccn(C2OC(CO)C(O)C2O)c(=O)[nH]1 (stereo not given)
inactive: dose: 64.0 mg/kg/injection, schedule: Q01DX005 (ip), vehicle: saline 93 % of control | dose: 128.0 mg/kg/injection, schedule: Q01DX005 (ip), vehicle: saline 89 % of control and 100 % of control | dose: 256.0 mg/kg/injection, schedule: Q01DX005 (ip), vehicle: saline 102 % of control and 109 % of control | dose: 512.0 mg/kg/injection, schedule: Q01DX005 (ip), vehicle: saline 96 % of control and 108 % of control

Cc1nc(N)nc(N)c1-c1ccc(Cl)c(Cl)c1
inactive: dose: 0.5 mg/kg/injection, schedule: Q01DX005 (ip), vehicle: saline with Tween-80 106 % of control and 117 % of control | dose: 1.0 mg/kg/injection, schedule: Q01DX005 (ip), vehicle: saline with Tween-80 89 % of control and 97 % of control | dose: 2.0 mg/kg/injection, schedule: Q01DX005 (ip), vehicle: saline with Tween-80 117 % of control | dose: 6.0 mg/kg/injection, schedule: Q04DX003 (ip), vehicle: saline 101 % of control | dose: 8.0 mg/kg/injection, schedule: Q04DX003 (ip), vehicle: saline 112 % of control

O=C(CCBr)N1CCN(C(=O)CCBr)CC1
inactive: dose: 2.5 mg/kg/injection, schedule: Q01DX005 (ip), vehicle: saline with Tween-80 98 % of control | dose: 5.0 mg/kg/injection, schedule: Q01DX005 (ip), vehicle: saline with Tween-80 103 % of control | dose: 10.0 mg/kg/injection, schedule: Q01DX005 (ip), vehicle: saline with Tween-80 92 % of control | dose: 20.0 mg/kg/injection, schedule: Q01DX005 (ip), vehicle: saline with Tween-80 105 % of control | dose: 40.0 mg/kg/injection, schedule: Q01DX005 (ip), vehicle: saline with Tween-80 105 % of control | dose: 80.0 mg/kg/injection, schedule: Q01DX005 (ip), vehicle: saline with Tween-80 111 % of control

COC1C(CO)OC(n2cnc3c(=S)nc(N)[nH]c32)C1O (stereo not given)
inactive: dose: 100.0 mg/kg/injection, schedule: Q01DX005 (ip), vehicle: Klucel (hydroxypropylcellulose) (HPC) 91 % of control

CCC1CC2CN(CCc3c([nH]c4ccccc34)C(C(=O)OC)(c3cc4c(cc3OC)N(C)C3C(O)(C(=O)OC)C(OC(C)=O)C5(CC)C=CCN6CCC43C65)C2)C1 (stereo not given)
inactive: dose: 0.05 mg/kg/injection, schedule: Q01DX005 (ip), vehicle: Klucel (hydroxypropylcellulose) (HPC) 102 % of control | dose: 0.1 mg/kg/injection, schedule: Q01DX005 (ip), vehicle: Klucel (hydroxypropylcellulose) (HPC) 108 % of control | dose: 0.2 mg/kg/injection, schedule: Q01DX005 (ip), vehicle: Klucel (hydroxypropylcellulose) (HPC) 108 % of control | dose: 0.4 mg/kg/injection, schedule: Q01DX005 (ip), vehicle: Klucel (hydroxypropylcellulose) (HPC) 108 % of control | dose: 0.8 mg/kg/injection, schedule: Q01DX005 (ip), vehicle: Klucel (hydroxypropylcellulose) (HPC) 108 % of control | dose: 1.6 mg/kg/injection, schedule: Q01DX005 (ip), vehicle: Klucel (hydroxypropylcellulose) (HPC) 102 % of control

COc1cc2c3c(c1)-c1c(ccc(OC)c1OC)CC3N(CCN(CCCl)CCCl)CC2 (stereo not given)
inactive: dose: 4.0 mg/kg/injection, schedule: Q01DX005 (ip), vehicle: saline with Tween-80 101 % of control and 108 % of control | [1] 104 % of control and 105 % of control | [2] 108 % of control | [3] 110 % of control

C[C@]1(O)CC[C@H]2[C@@H]3CCC4=CC(=O)CC[C@]4(C)[C@@]3(F)[C@@H](O)C[C@@]21C
inactive: [1] 94 % of control and 99 % of control | [2] 93 % of control and 104 % of control | [3] 102 % of control and 105 % of control | dose: 64.0 mg/kg/injection, schedule: Q01DX005 (ip), vehicle: saline with Tween-80 93 % of control and 96 % of control | dose: 128.0 mg/kg/injection, schedule: Q01DX005 (ip), vehicle: saline with Tween-80 93 % of control and 96 % of control | dose: 256.0 mg/kg/injection, schedule: Q01DX005 (ip), vehicle: saline with Tween-80 94 % of control and 100 % of control | dose: 512.0 mg/kg/injection, schedule: Q01DX005 (ip), vehicle: saline with Tween-80 93 % of control and 103 % of control

From PubChem BioAssay AID222 (DTP/NCI, 2004)
